Patent US9265777B2, “Antiparasitic agent for fish and method of controlling proliferation of fish parasites” (NIPPON SUISAN KAISHA, LTD., priority 2009, dated 2016)

Key:
Cryptocaryon irritans [1] = experiment: Examples 3 and 4: oral administration of single inhibitors and a combination against Cryptocaryon irritans on Pagrus major; assay type: in vivo; conditions: 60 parasites per plot, P=<0.01
Description: During the rearing period, 1.4 liters/min. of seawater was supplied. […] After exposure, seven fish each were moved into six 100-liter aquariums. During the rearing period, 1.4 liters/min. of seawater was supplied.

Cryptocaryon irritans [2] = experiment: Example 1: oral administration against parasitism of Cryptocaryon irritans on Pagrus major (1); conditions: 50 mg trimethoprim/kg body weight/day orally for three days; three days after the exposure
[3] = 300 mg/kg fish body weight/day for three days
[4] = 60 mg/kg fish body weight/day for three days

| Molecule | growth rate of parasites (body length as percentage of control plot), difference to control plot (Cryptocaryon irritans [1]; [3]) | growth rate of parasites (body length as percentage of control plot), difference to control plot (Cryptocaryon irritans [1]; [4]) | number of parasites (left gills, FIG. 1) relative to control plot (Cryptocaryon irritans [2]) |
| --- | --- | --- | --- |
| Cc1ccnc(NS(=O)(=O)c2ccc(N)cc2)n1 [SMDN, sulfamerazine] | statistically significant difference |  |  |
| sulfisozole [SIZ] | statistically significant difference |  |  |
| CN(Cc1cnc2nc(N)nc(N)c2n1)c1ccc(C(=O)N[C@@H](CCC(=O)O)C(=O)O)cc1 [MTX, methotrexate] |  | statistically significant difference |  |
| COc1cc(NS(=O)(=O)c2ccc(N)cc2)nc(OC)n1 [SDMX, sulfadimethoxine] | statistically significant difference |  |  |
| COc1cc(Cc2cnc(N)nc2N)cc(OC)c1OC [TMP, trimethoprim] |  | statistically significant difference | tend to be large |
| Cc1nnc(NS(=O)(=O)c2ccc(N)cc2)s1 [SMZ, sulfamethizole] | statistically significant difference |  |  |
| COc1cc(NS(=O)(=O)c2ccc(N)cc2)ncn1 [SMMX, sulfamonomethoxine] | statistically significant difference |  |  |
| Cc1cc(NS(=O)(=O)c2ccc(N)cc2)nc(C)n1 [SID, sulfisomidine] | statistically significant difference |  |  |
| N=C(N)c1ccc(OCCCCCOc2ccc(C(=N)N)cc2)cc1.O=S(=O)(O)CCO.O=S(=O)(O)CCO [PMD, isethionic acid pentamidine salt] |  | statistically significant difference |  |
